System: OMP-OV38 tumors
Experiment: Histology of treated OMP-OV38 tumors
Type: in vivo, NOD/SCID mice
Details: paclitaxel alone; data not shown
Procedure: The treated OMP-OV38 tumors were analyzed by histology.

Structure (SMILES): CC(=O)O[C@H]1C(=O)[C@@]2(C)[C@H]([C@H](OC(=O)c3ccccc3)[C@]3(O)C[C@H](OC(=O)[C@H](O)[C@@H](NC(=O)c4ccccc4)c4ccccc4)C(C)=C1C3(C)C)[C@]1(OC(C)=O)CO[C@@H]1C[C@@H]2O [paclitaxel]
- histology of the tumors: did not show these effects

— patent US20170247465A1, “COMBINATION THERAPY FOR TREATMENT OF CANCER” (OncoMed Pharmaceuticals, Inc., priority 2014, published 2017)
